We go through eleven compounds from PMC10988555, “Exploiting Co(III)-Cyclopentadienyl Complexes To Develop Anticancer Agents” (Inorganic Chemistry, 2024).

Data set [1] concerns HCT116 (human colorectal carcinoma) cell line. As to the kind of experiment: Antiproliferative activity, MTS assay, HCT116. The following applies: for IC50: 48 h exposure, MTS assay; for Selectivity index (SI) of ligands, HCT116: Table S3, values with * calculated taking fibroblast IC50 as 50 µM (minimal value). It is filed as cell-based. The protocol:
(§1) Human colorectal carcinoma cell line (HCT116), human breast cancer cell lines (MDA-MB-231 and MCF-7), and normal human primary dermal fibroblasts neonatal (PCS-201-010) cell line were grown in DMEM (Dulbecco’s modified Eagle’s medium) (Invitrogen Corp., Grand Island, NY, USA) supplemented with 10% (v/v) fetal bovine serum and 1% (v/v) antibiotic/antimycotic solution (Invitrogen Corp.). The human ovarian carcinoma (A2780) cell line was cultivated using RPMI (Roswell Park Memorial Institute) medium supplemented as in DMEM medium. The supplemented medium is named a complete medium. Cells were grown in an incubator with a humidified atmosphere at 5% (v/v) CO2 and 37 °C. All cell lines were purchased from ATCC (ATCC, American Type Culture Collection).
(§2) The evaluation of the cytotoxic potential of complexes 1–4 was obtained through in vitro measurements of the antiproliferative activity of these complexes. Cells were plated in 96-well plates at 7.5 × 10^4 cells/mL and incubated at 37 °C with 5% (v/v) CO2. After 24 h, the culture medium was replaced with fresh medium (100 μL) containing 0.1–50 μM of the different complexes and incubated for 48 h in tumor cell lines or containing 0.1–100 μM of the different complexes and incubated for 48 h in fibroblasts. […] The fibroblast cell line was used as a control of the cytotoxicity of the complexes for healthy cells. Cell viability was evaluated using Cell Titer 96 Aqueous Non-Radioactive Cell Proliferation Assay (Promega, Madison, WI, USA) using 3-(4,5-dimethylthiazol-2-yl)-5-(3-carboxymethoxyphenyl)-2-(4-sulfophenyl)-2H-tetrazolium inner salt (MTS), as described previously.[60] In metabolically active cells, enzymes present in the mitochondria catalyze a reaction in which NADPH/NADH is produced. These enzymes reduce the MTS reagent into a brownish product, Formazan, which can be quantified by measuring the absorbance at 490 nm. The quantity of formazan produced is directly proportional to the number of viable cells in the culture. This quantification was executed with a Biorad microplate reader Model 680 (Bio-Rad, Hercules, CA, USA). Half maximal inhibitory concentration (IC50) was calculated using GraphPad Prism 6 (GraphPadSoftware). We have calculated the ratio between the IC50 of fibroblasts and the IC50 of HCT116, A2780, MDA-MB-231, or MCF-7 cell lines for complexes 1–4 that was named herein as the Selectivity index (SI). To ensure the solubility of the complexes in all biological assays, complex solutions were freshly prepared and well solubilized before addition to the cells.

The test system of data set [2] is A2780 (human ovarian carcinoma) cell line. The experiment in a line: Antiproliferative activity, MTS assay, A2780. Format: cell-based. The following applies: for IC50: 48 h exposure, MTS assay; for Selectivity index (SI) of ligands, A2780: Table S3, values with * calculated taking fibroblast IC50 as 100 µM (minimal value). The protocol: as §1, §2
For data set [3], the system named is MCF-7 (human breast cancer) cell line. As to the kind of experiment: Antiproliferative activity, MTS assay, MCF-7. The following applies: 48 h exposure, MTS assay. It is filed as cell-based. As for the experimental part:
as §1, §2
A general note: Formazan colour is commonly taken as a measure of viable cells.

Data set [4] has as its system normal human primary dermal fibroblasts. The experiment in a line: Antiproliferative activity, MTS assay, healthy fibroblasts. The following applies: 48 h exposure, healthy human cells. It is filed as cell-based. The protocol:
as §1, §2

Data set [5] relates to MDA-MB-231 (human breast cancer) cell line. As to the kind of experiment: Antiproliferative activity, MTS assay, MDA-MB-231. Format: cell-based. The following applies: 48 h exposure. As for the experimental part: as §1, §2
Data set [6] is described as follows: Octanol-water partition coefficient, shake-flask method. Format: physicochemical. The following applies: room temperature. The protocol:
The lipophilicity of the CoCp complexes was estimated by the shake-flask method.[54] Before the assays, n-octanol was vigorously mixed with distilled water for 24 h at room temperature to promote solvent saturation of both phases. After separating the phases, the complexes were dissolved in the n-octanol phase to obtain solutions 1.0 × 10^–5 to 2.5 × 10^–4 M. Then, each solution was equilibrated with water for 4 h in a mechanical shaker, at a phase ratio of 2 mL n-octanol:2 mL water. Afterward, the aqueous and octanol layers were carefully separated by centrifugation (5000 rpm, 10 min), and the UV–vis absorption spectra of the complexes were recorded in the n-octanol phase. For each sample, the concentration was determined by using a calibration curve in n-octanol. All experiments were performed in triplicate for each complex, being the averages used for calculation purposes. Finally, the values of the partition coefficients were calculated by resorting to the following eq (eq 1): [drawing 1] 1 where logPoct/water represents the octanol–water partition coefficient, [complex]oct represents the concentration of the complex in the n-octanol phase, and [complex]water represents the concentration of the complex in the water phase.

Another data set has as its system A2780 cell line. As to the kind of experiment: Autophagy induction, flow cytometry. Format: cell-based, human. The following applies: A2780, 48 h; complexes at IC50, DOX 0.4 μM, cisplatin 5 μM; rapamycin 500 nM for 15 h. As for the experimental part:
The autophagy induced by complexes 2–4 was evaluated using the Autophagy Assay Kit (ab139484, Abcam, Cambridge, United Kingdom) according to the manufacturer’s instructions. For this, the A2780 cell line was seeded at a density of 2 × 10^5 cells/well in 6-well plates and incubated for 24 h at the conditions mentioned before. […] The positive control Rapamycin at 500 nM was incubated for only 15 h. After 48 h incubation, the cells were washed with PBS 1×, detached with TE, and treated with the Autophagy detection kit (Abcam, Cambridge, UK) according to the manufacturer’s instructions. The evaluation of autophagy induction was done through the Attune acoustic focusing flow cytometer (ThermoFisher Scientific) and respective software.
A general note: In flow cytometry, cells or beads pass a laser one at a time.

The test system of a further data set is A2780 cells. The experiment in a line: Cell cycle progression (PI flow cytometry, double thymidine block). Format: cell-based, human. The following applies: A2780, 24 h; complexes at IC50, DOX 0.4 μM, cisplatin 5 μM. The protocol: The interference of the copper complexes 2–4 in the cell cycle progression was evaluated in A2780 cells, seeded in 6-weel plates, with a density of 2 × 10^5 cells/well, and incubated for 8 h at the same conditions as described above. After that incubation time, the cells were synchronized in early S-phase with a 2 mM thymidine solution (Sigma, St. Louis, USA) for a 16 h period. Media with thymidine was replaced by fresh media and, after 8 h, another 2 mM thymidine solution was added to the wells (double thymidine block) and incubated for 16 h. […] Cells were incubated for 9, 18, or 24 h, and, at each hour, the cells were treated with TE and centrifuges at 650 × g for 5 min at 4 °C. The pellet was resuspended in PBS 1× and centrifuged at 3000 × g for 5 min at 4 °C. Later, the pellet was resuspended in 100 μL of PBS 1×, and 1 mL of a solution of 80% (v/v) ethanol was gently added to the cells. Cells were stored at 4 °C for at least 12 h and then centrifuged for 10 min at 7500 × g at 4 °C, treated with 250 μL of 50 μg/mL RNase A, and incubated for 30 min at 37 °C. After incubation, 100 μL of PI (25 μg/mL) was added to the cells as well as 650 μL of PBS 1×. The DNA content was evaluated on an Attune Acoustic Focusing Flow Cytometer (ThermoFisher Scientific) and results were analyzed by the respective software.

The subject of another data set is DNA of A2780 cells. The experiment in a line: Single-cell gel electrophoresis (comet assay). Format: cell-based, human. The following applies: A2780; complexes 10× IC50 for 12 h; H2O2 0.05% for 30 min at RT. The protocol: A2780 cells were seeded in 6-well plates with a density of 1 × 10^6 cells/well and incubated for 24 h in an incubator with a humidified atmosphere at 5% (v/v) CO2 and 37 °C. […] The complexes and DMSO were incubated at 37 °C for 12 h and H2O2 for 30 min at RT. Cells were harvested with a cell scraper and solutions with 1 × 10^5 cells/mL in PBS were prepared. It was withdrawn 10 μL from the solutions and added to 90 μL of 1.5% (w/v) low melting point agarose in 1× PBS and dropped on the slides prepared previously with a coating of 1.5% (w/v) agarose (normal melting point agarose) in 1× TAE buffer. After drying at 4 °C for 15 min, the slides were dipped into lysis solution (450 mM NaCl, 3.72% EDTA, 5 mM Tris; to which 10% (v/v) DMSO and 1% (v/v) Triton-X were added just before use) for 1 h at 4 °C, followed by their being dipped for 40 min into cold electrophoresis solution (1 mM EDTA, 300 mM NaOH, pH 13). Electrophoresis was performed at 4 °C for 30 min at 25 V using a Sub-Cell model 96 apparatus (Bio-Rad). Afterward, slides were placed in 0.1 M Tris–HCl buffer (pH 7.5) at 4 °C for 15 min for neutralization, followed by 15 min in methanol at 4 °C and drying at 37 °C. For visualization of comets, slides were hydrated with distilled water at 4 °C for 30 min, stained with 20 μL of GelRed working solution (3×), and covered with new coverslips. The slides were observed under a Ti–U Eclipse inverted microscope (Nikon Instruments, Japan) and analyzed by CometScore version 2.1 (TriTek). About 100 cells per sample were analyzed. The percentage of DNA in the tail was used as a measure of the total DNA strand breakage.

By IC50 is commonly meant the concentration needed to halve the response being measured. High values mean lower potency, low ones higher potency. In the case of `O=S(=O)([O-])C(F)(F)F.O=S(=O)([O-])C(F)(F)F.[Co+3].c1cc[cH-]c1.c1ccc(-c2ccccn2)nc1.c1ccc(P(c2ccccc2)c2ccccc2)cc1` [Complex 1, [Co(η^5-C5H5)(PPh3)(bipy)][(CF3SO3)2]], the half-maximal inhibitory concentration (IC50) in [1] was greater than 50 µM; in data set [2] it was 18.1 ± 0.1 µM; in data set [3], greater than 50 µM; in data set [4] it was greater than 100 µM; in data set [5], greater than 50 µM. In data set [6], the “logP (n-octanol/water partition coefficient)” value is reported as −0.67 ± 0.02.
Consider `Cc1ccnc(-c2cc(C)ccn2)c1` [Me2bipy, 4,4′-dimethyl-2,2′-bipyridine], for which the 50% inhibitory concentration (IC50) is 12.4 ± 0.2 µM in data set [1] (Homo sapiens, HCT-116); 17.6 ± 0.1 µM in data set [2] (Homo sapiens, A2780); greater than 50 µM in data set [4] (Fibroblast). Also, the “Selectivity index (SI) of ligands, HCT116” value (shortened to “Selectivity index … HCT116”) in data set [1] was 4.0. Further, the “Selectivity index (SI) of ligands, A2780” value in data set [2] was 2.8. In [2] (free ligand, A2780 and HCT116), the “fold less cytotoxic than Phen and NH2phen ligands” value is “about 10 fold”.
Consider `Nc1cc2cccnc2c2ncccc12` [NH2phen, 5-amino-1,10′-phenanthroline], for which the half-inhibitory concentration (IC50) in [1] (Homo sapiens, HCT-116) is 2.3 ± 0.06 µM; in data set [2] (Homo sapiens, A2780), 1.9 ± 0.08 µM; in [4] (Fibroblast) it was 29.9 ± 0.4 µM. Moreover, the “Selectivity index … HCT116” value in data set [1] was 13.1. In addition, in data set [2], the “Selectivity index (SI) of ligands, A2780” value is 15.2.
In the case of `c1ccc(P(c2ccccc2)c2ccccc2)cc1` [PPh3, triphenylphosphane], the IC50 is greater than 50 µM in [1] (Homo sapiens, HCT-116); 37.8 ± 0.1 µM in data set [2] (Homo sapiens, A2780); greater than 50 µM in [4] (Fibroblast). The “Selectivity index (SI) of ligands, A2780” value in data set [2] was 1.3.
For `c1cnc2c(c1)ccc1cccnc12` [Phen, 1,10′-phenanthroline], the IC50 in data set [1] (Homo sapiens, HCT-116) came to 4.1 ± 0.04 µM; in data set [2] (Homo sapiens, A2780), 2.4 ± 0.05 µM; in data set [4] (Fibroblast), 50.1 ± 0.1 µM. In addition, in data set [1], the “Selectivity index … HCT116” value was 12.4. In addition, the “Selectivity index (SI) of ligands, A2780” value in data set [2] is 20.9.
As for `O=[C]=[Co]([I])([I])[CH]1C=CC=C1` [[CoCp(CO)I2]], the IC50 in data set [1] is greater than 50 µM; in data set [2] it was 29.9 ± 0.1 µM; in data set [4], greater than 50 µM. Also, in [2], the “Selectivity index (SI) of ligands, A2780” value was 1.7.
With `c1ccc(-c2ccccn2)nc1` [bipy, 2,2′-bipyridine], the 50% inhibitory concentration (IC50) in [1] (Homo sapiens, HCT-116) is greater than 50 µM; in data set [2] (Homo sapiens, A2780), greater than 50 µM; in data set [4] (Fibroblast) it was greater than 50 µM.
In the data set on A2780 cell line, `N.N.[Cl][Pt][Cl]` [cisplatin, reference compound] registered a levels of autophagy of 96.7%. Further, the values for the IC50 in data set [1] and in data set [2] were 15.6 ± 5.3 µM and 1.9 ± 0.2 µM, respectively. Besides, the “% of cells in the G2/M phase” value in the data set on A2780 cells is recorded as 31.3%.
Compound `COc1cccc2c1C(=O)c1c(O)c3c(c(O)c1C2=O)C[C@@](O)(C(=O)CO)C[C@@H]3O[C@H]1C[C@H](N)[C@H](O)[C@H](C)O1` [doxorubicin, reference compound] displayed a levels of autophagy in the data set with A2780 cell line of 84.1%. The concentration for half-maximal inhibition (IC50) in [1] (Homo sapiens, HCT-116) worked out at 0.5 ± 0.1 µM; in data set [2] (Homo sapiens, A2780), 0.1 ± 0.1 µM. In addition, the “% of cells in the G2/M phase” value in the data set on A2780 cells was 77.9%.
For `OO` [hydrogen peroxide, reference compound], the “% of DNA in the tail” value in the data set on DNA of A2780 cells is recorded as 73%.
In the case of `CO[C@H]1C[C@@H]2CC[C@@H](C)[C@@](O)(O2)C(=O)C(=O)N2CCCC[C@H]2C(=O)O[C@H]([C@H](C)C[C@@H]2CC[C@@H](O)[C@H](OC)C2)CC(=O)[C@H](C)/C=C(\C)[C@@H](O)[C@@H](OC)C(=O)[C@H](C)C[C@H](C)/C=C/C=C/C=C/1C` [rapamycin, Rapamycin, reference compound], the levels of autophagy in the data set with A2780 cell line is on record as 72.93%.
